This is an account of results in patent US12122761B2, “2-azaspiro[3.4]octane derivatives as M4 agonists” (NOVARTIS AG, priority 2019, dated 2024).

The structures appear in SMILES notation. A value given as a limit tells only on which side of the number the result lay.

The target in experiment [1] is T1, human cloned CHRM3 receptor (M3_CHO cells) (Homo sapiens, UniProt P20309).
T1 construct: expressed in transfected cells; host or cells: CHO-K1
The experiment in a line: CHRM3 Ca++ Flux Assay (agonist mode, FDSS 7000EX). Type of experiment: cell-based. To be noted: for Emax: Percent Activity measured to EC100 of Carbachol, read-out: M3 FDSS PA; for EC50: agonist mode, geometric mean if tested more than once, read-out: M3 FDSS EC50. The method, boiled down:
(§1)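 Fluorescent intracellular Ca++ signal, recorded for 3 min, served as read-out for CHO-K1 cells stably carrying human M3 or M5 receptor. Triplicate 11-point dose responses were averaged and fitted to a four-parameter model, with percent activity referenced to the carbachol EC100.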

The target of experiment [2] is T2, human cloned CHRM5 receptor (M5_CHO) (Homo sapiens, UniProt P08912).
T2 construct: expressed in transfected cells; host or cells: CHO (M5_CHO)
T2 sequence (P08912 1-532): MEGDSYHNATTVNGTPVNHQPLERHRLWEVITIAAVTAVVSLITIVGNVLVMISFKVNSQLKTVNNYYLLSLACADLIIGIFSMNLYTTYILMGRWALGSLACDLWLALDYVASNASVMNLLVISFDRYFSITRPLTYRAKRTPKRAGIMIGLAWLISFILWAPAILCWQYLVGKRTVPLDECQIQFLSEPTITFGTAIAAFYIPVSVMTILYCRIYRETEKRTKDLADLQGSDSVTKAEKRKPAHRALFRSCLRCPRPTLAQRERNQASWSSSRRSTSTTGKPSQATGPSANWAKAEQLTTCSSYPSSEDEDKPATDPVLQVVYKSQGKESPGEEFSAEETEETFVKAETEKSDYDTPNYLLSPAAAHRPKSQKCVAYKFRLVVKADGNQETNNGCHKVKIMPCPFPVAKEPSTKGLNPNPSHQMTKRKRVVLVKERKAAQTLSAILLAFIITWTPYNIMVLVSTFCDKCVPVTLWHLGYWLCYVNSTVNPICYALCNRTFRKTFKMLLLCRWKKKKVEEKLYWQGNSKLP
Nature of the experiment: CHRM5 Ca++ Flux Assay (agonist mode, FDSS 7000EX). Type of experiment: cell-based. Particulars: for Emax: Percent Activity measured to EC100 of Carbachol, read-out: M5 FDSS PA; for EC50: agonist mode, geometric mean if tested more than once, read-out: M5 FDSS EC50. In a few lines: as §1

T1 sequence (P20309 whole entry): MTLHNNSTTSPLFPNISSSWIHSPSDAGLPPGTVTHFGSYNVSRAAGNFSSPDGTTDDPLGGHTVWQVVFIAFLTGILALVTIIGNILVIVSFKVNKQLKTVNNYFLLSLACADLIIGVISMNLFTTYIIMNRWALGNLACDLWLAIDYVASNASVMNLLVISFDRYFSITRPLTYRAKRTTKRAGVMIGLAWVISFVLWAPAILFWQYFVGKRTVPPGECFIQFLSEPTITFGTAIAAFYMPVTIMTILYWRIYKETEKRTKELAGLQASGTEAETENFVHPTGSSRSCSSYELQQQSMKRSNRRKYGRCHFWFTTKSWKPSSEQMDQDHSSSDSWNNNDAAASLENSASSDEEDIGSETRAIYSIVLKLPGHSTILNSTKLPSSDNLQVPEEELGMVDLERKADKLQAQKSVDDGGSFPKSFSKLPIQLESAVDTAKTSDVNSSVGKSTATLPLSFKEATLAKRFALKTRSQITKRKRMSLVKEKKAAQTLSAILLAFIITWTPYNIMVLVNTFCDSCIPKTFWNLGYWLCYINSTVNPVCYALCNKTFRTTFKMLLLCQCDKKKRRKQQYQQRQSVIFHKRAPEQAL

As to `Fc1cncc(N2CC3(CC[C@@H](N4CCC(c5ccccc5C5CCOCC5)CC4)C3)C2)c1` [Example 5AA, (R)-2-(5-fluoropyridin-3-yl)-6-(4-(2-(tetrahydro-2H-pyran-4-yl)phenyl)piperidin-1-yl)-2-azaspiro[3.4]octane], in experiment [1], the Emax stood at 0% and the half-maximal effective concentration (EC50) is over 25 µM. Also, in experiment [2], the Emax was determined as 0% and the EC50 is over 25 µM.

With `c1ccc(C2CCN([C@@H]3CCC4(C3)CN(c3cncnc3)C4)CC2)c(C2CCOCC2)c1` [Example 5BB, (R)-2-(pyrimidin-5-yl)-6-(4-(2-(tetrahydro-2H-pyran-4-yl)phenyl)piperidin-1-yl)-2-azaspiro[3.4]octane], the Emax in experiment [1] and in experiment [2] was 0% throughout. Besides, the EC50 in experiment [1] and in experiment [2] was over 25 µM throughout.

Take `Fc1ccc(N2CC3(CC[C@@H](N4CCC(c5ccccc5C5CCOCC5)CC4)C3)C2)cn1` [Example 5CC, (R)-2-(6-fluoropyridin-3-yl)-6-(4-(2-(tetrahydro-2H-pyran-4-yl)phenyl)piperidin-1-yl)-2-azaspiro[3.4]octane]: in experiment [1], the Emax was determined as 0% and the EC50 is over 25 µM. In addition, in experiment [2], the Emax turned out to be 0% and the EC50 was over 25 µM.

For the molecule `COc1ccccc1C1CCN([C@@H]2CCC3(C2)CN(c2cnc(C)cn2)C3)CC1` [Example 5DD, (R)-6-(4-(2-methoxyphenyl)piperidin-1-yl)-2-(5-methylpyrazin-2-yl)-2-azaspiro[3.4]octane], the Emax in experiment [1] and in experiment [2] was 0% each time. For the same molecule, the EC50 in experiment [1] and in experiment [2] was over 25 µM each time.

Take `Cc1nccnc1N1CC2(CC[C@@H](N3CCC(c4ccccc4OCC(C)(C)O)CC3)C2)C1` [Example 5T, (R)-2-methyl-1-(2-(1-(2-(3-methylpyrazin-2-yl)-2-azaspiro[3.4]octan-6-yl)piperidin-4-yl)phenoxy)propan-2-ol]: in experiment [1], the Emax is 0% and the EC50 was over 25 µM. Moreover, in experiment [2], the Emax turned out to be 0% and the EC50 is over 25 µM.

`CC(C)(O)COc1ccccc1C1CCN([C@@H]2CCC3(C2)CN(c2ncncn2)C3)CC1` [Example 5U, (R)-1-(2-(1-(2-(1,3,5-triazin-2-yl)-2-azaspiro[3.4]octan-6-yl)piperidin-4-yl)phenoxy)-2-methylpropan-2-ol]: in experiment [1], the Emax came out at 0% and the EC50 is over 25 µM. For the same molecule, in experiment [2], the Emax was determined as 0% and the EC50 was over 25 µM.

`COc1ccc(F)cc1C1CCN([C@@H]2CCC3(C2)CN(c2ccnnc2)C3)CC1` [Example 5V, (R)-6-(4-(5-fluoro-2-methoxyphenyl)piperidin-1-yl)-2-(pyridazin-4-yl)-2-azaspiro[3.4]octane]: in experiment [1], the Emax came to 0% and the EC50 is over 25 µM. Further, in experiment [2], the Emax came out at 0% and the EC50 was over 25 µM.

For `Fc1cccc(C2CCN([C@@H]3CCC4(C3)CN(c3cncnc3)C4)CC2)c1OC1COC1` [Example 5W, (R)-6-(4-(3-fluoro-2-(oxetan-3-yloxy)phenyl)piperidin-1-yl)-2-(pyrimidin-5-yl)-2-azaspiro[3.4]octane], in experiment [1], the Emax worked out at 0% and the EC50 is over 25 µM. In experiment [2], the Emax was determined as 0% and the EC50 is over 25 µM.

On to `COCCOc1ccccc1C1CCN([C@@H]2CCC3(C2)CN(c2cccnn2)C3)CC1` [Example 5X, (R)-6-(4-(2-(2-methoxyethoxy)phenyl)piperidin-1-yl)-2-(pyridazin-3-yl)-2-azaspiro[3.4]octane], for which, in experiment [1], the Emax came out at 0% and the EC50 is over 25 µM. Besides, in experiment [2], the Emax stood at 0% and the EC50 is over 25 µM.

As for `COCCOc1ccccc1C1CCN([C@@H]2CCC3(C2)CN(c2cnc(C)cn2)C3)CC1` [Example 5Y, (R)-6-(4-(2-(2-methoxyethoxy)phenyl)piperidin-1-yl)-2-(5-methylpyrazin-2-yl)-2-azaspiro[3.4]octane], in experiment [1], the Emax turned out to be 0% and the EC50 is over 25 µM. In experiment [2], the Emax was 0% and the EC50 was over 25 µM.

For `COCCOc1ccccc1C1CCN([C@@H]2CCC3(C2)CN(c2ccnnc2)C3)CC1` [Example 5Z, (R)-6-(4-(2-(2-methoxyethoxy)phenyl)piperidin-1-yl)-2-(pyridazin-4-yl)-2-azaspiro[3.4]octane], in experiment [1], the Emax came out at 0% and the EC50 was over 25 µM. In addition, in experiment [2], the Emax stood at 0% and the EC50 is over 25 µM.

On to `COc1ccc(F)cc1C1CCN([C@@H]2CCC3(C2)CN(C(=O)C2COC2)C3)CC1` [Example 6A, (R)-(6-(4-(5-fluoro-2-methoxyphenyl)piperidin-1-yl)-2-azaspiro[3.4]octan-2-yl)(oxetan-3-yl)methanone], for which the Emax in experiment [1] was 0%. Besides, in experiment [2], the Emax amounted to 0% and the EC50 is over 25 µM.

Turning to `O=C(C1COC1)N1CC2(CC[C@@H](N3CCC(c4ccc(F)cc4OC(F)F)CC3)C2)C1` [Example 6B, (R)-(6-(4-(2-(difluoromethoxy)-4-fluorophenyl)piperidin-1-yl)-2-azaspiro[3.4]octan-2-yl)(oxetan-3-yl)methanone], in experiment [1], the Emax came to 0% and the EC50 was over 25 µM. In experiment [2], the Emax is 0% and the EC50 was over 25 µM.

With `CC(C)Oc1cc(F)ccc1C1CCN([C@@H]2CCC3(C2)CN(C(=O)C2COC2)C3)CC1` [Example 6D, (R)-(6-(4-(4-fluoro-2-isopropoxyphenyl)piperidin-1-yl)-2-azaspiro[3.4]octan-2-yl)(oxetan-3-yl)methanone], in experiment [1], the Emax amounted to 0% and the concentration giving a half-maximal response (EC50) was over 25 µM. In addition, in experiment [2], the Emax turned out to be 0% and the EC50 was over 25 µM.

With `O=C(N1CC2(CC[C@@H](N3CCC(c4ccccc4C4CCOCC4)CC3)C2)C1)C1(F)CC1` [Example 6E, (R)-(1-fluorocyclopropyl)(6-(4-(2-(tetrahydro-2H-pyran-4-yl)phenyl)piperidin-1-yl)-2-azaspiro[3.4]octan-2-yl)methanone], the Emax in experiment [1] and in experiment [2] was 0% throughout. Further, the EC50 in experiment [1] and in experiment [2] was over 25 µM in each case.

In the case of `O=C(C1COC1)N1CC2(CC[C@@H](N3CCC(c4ccccc4OC4CC4)CC3)C2)C1` [Example 7A, (R)-(6-(4-(2-cyclopropoxyphenyl)piperidin-1-yl)-2-azaspiro[3.4]octan-2-yl)(oxetan-3-yl)methanone], in experiment [1], the Emax stood at 9% and the EC50 was determined as 9.78 µM. Moreover, in experiment [2], the Emax amounted to 0% and the half-maximal effective concentration (EC50) was over 25 µM.

On to `CC(C)(F)COc1ccccc1C1CCN([C@@H]2CCC3(C2)CN(C(=O)C2COC2)C3)CC1` [Example 7B, (R)-(6-(4-(2-(2-fluoro-2-methylpropoxy)phenyl)piperidin-1-yl)-2-azaspiro[3.4]octan-2-yl)(oxetan-3-yl)methanone], for which the Emax in experiment [1] and in experiment [2] was 0% each time. For the same molecule, the EC50 in experiment [1] and in experiment [2] was over 25 µM in each case.

As to `O=C(C1COC1)N1CC2(CC[C@@H](N3CCC(c4ccccc4Oc4nccs4)CC3)C2)C1` [Example 7C, (R)-oxetan-3-yl(6-(4-(2-(thiazol-2-yloxy)phenyl)piperidin-1-yl)-2-azaspiro[3.4]octan-2-yl)methanone], in experiment [1], the Emax amounted to 0% and the EC50 is over 25 µM. Further, in experiment [2], the Emax amounted to 0% and the EC50 is over 25 µM.

Regarding `CC(C)(O)CCOc1ccccc1C1CCN([C@@H]2CCC3(C2)CN(C(=O)C2COC2)C3)CC1` [Example 7CC, (R)-(6-(4-(2-(3-hydroxy-3-methylbutoxy)phenyl)piperidin-1-yl)-2-azaspiro[3.4]octan-2-yl)(oxetan-3-yl)methanone], in experiment [1], the Emax is 0% and the EC50 is over 25 µM. In experiment [2], the Emax was 9% and the half-maximal effective concentration (EC50) was determined as 2.01 µM.

In the case of `N#CCCOc1ccccc1C1CCN([C@@H]2CCC3(C2)CN(C(=O)C2COC2)C3)CC1` [Example 7D, (R)-3-(2-(1-(2-(oxetane-3-carbonyl)-2-azaspiro[3.4]octan-6-yl)piperidin-4-yl)phenoxy)propanenitrile], in experiment [1], the Emax worked out at 0% and the EC50 is over 25 µM. Besides, in experiment [2], the Emax was found to be 16% and the EC50 amounted to 2.2 µM.

As for `O=C(C1COC1)N1CC2(CC[C@@H](N3CCC(c4ccccc4OCCOC(F)(F)F)CC3)C2)C1` [Example 7DD, (R)-oxetan-3-yl(6-(4-(2-(2-(trifluoromethoxy)ethoxy)phenyl)piperidin-1-yl)-2-azaspiro[3.4]octan-2-yl)methanone], in experiment [1], the Emax worked out at 0% and the EC50 is over 25 µM. In experiment [2], the Emax worked out at 18% and the EC50 was determined as 1.12 µM.
